The target in data set [1] is T1, human adenosine A2A receptor (Homo sapiens, UniProt P29274).
T1 construct: expressed in transfected cells; host or cells: CHO cells, semliki forest virus expression system; washed membrane pellet used
The data set can be described thus: [3H]-SCH-58261 binding assay, human adenosine A2A receptor (CHO cell membranes, SPA). The settings on record: displacement of [3H]-SCH-58261 (1 nM); recombinant receptor in CHO membranes; Ki by Cheng-Prussoff equation; read-out: hA2 (pKi) (converted). How it is done: Human Adenosine A2A Receptor
The human adenosine A2A receptor was recombinantly expressed in chinese hamster ovary (CHO) cells using the semliki forest virus expression system. Cells were harvested, washed twice by centrifugation, homogenised and again washed by centrifugation. The final washed membrane pellet was suspended in a Tris (50 mM) buffer containing 120 mM NaCl, 5 mM KCl, 2 mM CaCl2 and 10 mM MgCl2 (pH 7.4) (buffer A). The [^3H]-SCH-58261 (Dionisotti et al., 1997, Br J Pharmacol 121, 353; 1 nM) binding assay was carried out in 96-well plates in the presence of 2.5 μg of membrane protein, 0.5 mg of Ysi-poly-1-lysine SPA beads and 0.1 U adenosine deaminase in a final volume of 200 μl of buffer A. Non-specific binding was defined using xanthine amine congener (XAC; 2 μM). Compounds were tested at 10 concentrations from 10 μM–0.3 nM. All assays were conducted in duplicate and repeated at least two times. Assay plates were incubated for 1 hour at room temperature before centrifugation and then bound ligand determined using a Packard Topcount scintillation counter. IC50 values, the concentration where 50% of the […] binding is displaced, were calculated using a non-linear curve fitting program and Ki values calculated using the Cheng-Prussoff equation.

SMILES strings stand for the structures.

T1 sequence (P29274 whole entry): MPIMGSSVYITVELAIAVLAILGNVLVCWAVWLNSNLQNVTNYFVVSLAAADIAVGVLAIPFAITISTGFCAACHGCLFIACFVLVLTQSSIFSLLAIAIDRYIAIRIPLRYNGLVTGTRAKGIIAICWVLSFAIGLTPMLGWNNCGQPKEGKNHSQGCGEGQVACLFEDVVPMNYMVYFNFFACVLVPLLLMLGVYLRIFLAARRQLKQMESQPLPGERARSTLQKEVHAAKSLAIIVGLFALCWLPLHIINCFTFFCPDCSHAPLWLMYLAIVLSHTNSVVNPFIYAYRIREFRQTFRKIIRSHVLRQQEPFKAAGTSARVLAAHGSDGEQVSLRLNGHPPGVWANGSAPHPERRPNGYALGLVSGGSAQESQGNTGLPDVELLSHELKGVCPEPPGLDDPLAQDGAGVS

`COc1ccc(N2CCOCC2)c2sc(NC(=O)N3CC4CCC3CO4)nc12` (stereo not shown) [Example 30, 2-Oxa-5-aza-bicyclo[2.2.2]octane-5-carboxylic acid (4-methoxy-7-morpholin-4-yl-benzothiazol-2-yl)-amide]: the melting point was 164 to 170 °C. Moreover, the Ki in data set [1] was 5.01 nM.

For the compound `COc1ccc(N2CCOCC2)c2sc(NC(=O)N(C)[C@H]3CC[C@H](OC)CC3)nc12` [Example 32, (trans)-1-(4-Methoxy-cyclohexyl)-3-(4-methoxy-7-morpholin-4-yl-benzothiazol-2-yl)-1-methyl-urea], the melting point lay within 211 to 213 °C. For the same compound, in data set [1], the Ki is 25.1 nM.

Values taken from patent US7019001B2, “Substituted benzothiazole amide derivatives” (Hoffman-La Roche Inc., priority 2001, dated 2006).
